Assay results from patent US20250230193A1, “CYCLIC COMPOUND HAVING SELECTIVE KRAS INHIBITORY EFFECT ON HRAS AND NRAS” (CHUGAI SEIYAKU KABUSHIKI KAISHA, priority 2022, published 2025).
Where a SMILES comes first, the peptide text is derived from it. Bridges are numbered along the chain shown (N, C = ends). [ ]: non-standard residue; d: D form. The star is where a group is joined. hPhe(3-Cl-4-CF3) = N[C@@H](CCc1ccc(C(F)(F)F)c(Cl)c1)C(=O)O; NPrPhe(4-CF3) = CCCN[C@@H](Cc1ccc(C(F)(F)F)cc1)C(=O)O; NMeGly(cPent) = CN[C@H](C(=O)O)C1CCCC1; cisHyp = O=C(O)[C@@H]1C[C@H](O)CN1; NMeD = CN[C@@H](CC(=O)O)C(=O)O; NMeL = CN[C@@H](CC(C)C)C(=O)O; Morpholide = C1CN(*)CCO1; NAllylGly = C=CCNCC(=O)O; Ac5c = NC1(C(=O)O)CCCC1; Sar = CNCC(=O)O

How the values were obtained:
[1] = target: GDP-bound NRAS wild-type protein (Homo sapiens, UniProt P01111); experiment: Binding to NRAS by surface plasmon resonance (SPR), Single Cycle Kinetics; conditions: for NRAS/KRAS (ratio of KD value for NRAS to KD value for KRAS): GDP-bound NRAS wild-type vs GDP-bound KRAS wild-type
GDP-bound NRAS wild-type protein, sequence (P01111 whole entry): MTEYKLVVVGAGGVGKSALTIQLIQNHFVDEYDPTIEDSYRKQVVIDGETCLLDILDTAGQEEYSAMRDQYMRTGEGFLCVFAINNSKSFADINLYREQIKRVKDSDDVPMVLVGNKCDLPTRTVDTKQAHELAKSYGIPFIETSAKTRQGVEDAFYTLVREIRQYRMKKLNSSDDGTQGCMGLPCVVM

[2] = target: GDP-bound HRAS wild-type protein (Homo sapiens, UniProt P01112); experiment: Binding to HRAS by surface plasmon resonance (SPR), Single Cycle Kinetics; conditions: for HRAS/KRAS (ratio of KD value for HRAS to KD value for KRAS): GDP-bound HRAS wild-type vs GDP-bound KRAS wild-type
GDP-bound HRAS wild-type protein, sequence (P01112 whole entry): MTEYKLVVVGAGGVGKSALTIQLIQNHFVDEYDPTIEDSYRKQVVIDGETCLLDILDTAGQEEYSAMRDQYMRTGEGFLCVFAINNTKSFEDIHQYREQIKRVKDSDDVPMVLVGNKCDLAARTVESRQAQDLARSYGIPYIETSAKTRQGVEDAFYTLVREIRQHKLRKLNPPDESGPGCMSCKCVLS

CCO[C@@H]1C[C@H]2C(=O)NC3(CCC3)C(=O)N(C)[C@@H](C3CCCC3)C(=O)N(C)[C@H](C(=O)N3CCOCC3)CC(=O)N(C)[C@@H](CC3CCCCC3)C(=O)N[C@@H]([C@@H](C)CC)C(=O)N(C)CC(=O)N(C)[C@H]3CCCCN(C3=O)[C@@H](Cc3ccc(C(F)(F)F)cc3)C(=O)N(C)CC(=O)N[C@@H](CCc3cc(F)c(C(F)(F)F)c(F)c3)C(=O)N2C1 [PP0716]
NRAS/KRAS (ratio of KD value with respect to GDP-bound NRAS wild-type protein to KD value with respect to KRAS) ([1]; KD ratio NRAS/KRAS, SPR): C (A compound having a KD ratio of 0.1 or more and less than 3 is denoted as C)
HRAS/KRAS (ratio of KD value with respect to GDP-bound HRAS wild-type protein to KD value with respect to KRAS) ([2]; KD ratio HRAS/KRAS, SPR): B (a compound having 3 or more and less than 10 is denoted as B)

CCO[C@@H]1C[C@H]2C(=O)NC3(CC(C)(C)C3)C(=O)N(C)[C@@H](C3CCCC3)C(=O)N(C)[C@H](C(=O)N(C)CC)CC(=O)N(C)[C@H]3CCC/C=C/c4ccc(cc4)C[C@@H](C(=O)N(C)CC(=O)N[C@@H](CCc4cc(F)c(C(F)(F)F)c(F)c4)C(=O)N2C1)N1CC/C=C\C[C@@H](C1=O)N(C)C(=O)CN(C)C(=O)[C@H]([C@@H](C)CC)NC3=O [PP1835]
NRAS/KRAS (ratio of KD value for NRAS to KD value for KRAS) ([1]; SPR): A (a compound having 10 or more and less than 20 is denoted as A)
HRAS/KRAS (ratio of KD value for HRAS to KD value for KRAS) ([2]; SPR): B (a compound having 3 or more and less than 10 is denoted as B)

CCO[C@@H]1C[C@H]2C(=O)NC3(CC(C)(C)C3)C(=O)N(C)[C@@H](C3CCCC3)C(=O)N(C)[C@H](C(=O)N(C)CC)CC(=O)N(C)[C@@H](CC(C)C)C(=O)N[C@@H]([C@@H](C)OCC)C(=O)N(C)CC(=O)N(C)[C@H]3C/C=C\CCN(C3=O)[C@@H](Cc3ccc(C(F)(F)F)cc3)C(=O)N(C)CC(=O)N[C@@H](CCc3cc(F)c(C(F)(F)F)c(F)c3)C(=O)N2C1 [PP1919]
NRAS/KRAS (ratio of KD value for NRAS to KD value for KRAS) ([1]; SPR): A (a compound having 10 or more and less than 20 is denoted as A)
HRAS/KRAS (ratio of KD value for HRAS to KD value for KRAS) ([2]; SPR): A (a compound having 10 or more and less than 20 is denoted as A)

CCCN1C(=O)CN(C)C(=O)CN(C)C(=O)[C@H]([C@@H](C)CC)NC(=O)[C@H](CC(C)C)N(C)C(=O)C[C@@H](C(=O)N2CCOCC2)N(C)C(=O)[C@H](C2CCCC2)N(C)C(=O)C2(CCCC2)NC(=O)[C@@H]2C[C@H](O)CN2C(=O)[C@H](CCc2ccc(C(F)(F)F)c(Cl)c2)NC(=O)CN(C)C(=O)[C@@H]1Cc1ccc(C(F)(F)F)cc1 [PP0240] ([NMeL]I[Sar][Sar][NPrPhe(4-CF3)][Sar][hPhe(3-Cl-4-CF3)][cisHyp][Ac5c][NMeGly(cPent)][NMeD]-Morpholide; lactam N-11)
NRAS/KRAS (ratio of KD for GDP-bound NRAS wild-type to KD for KRAS) ([1]; KD ratio NRAS/KRAS, SPR): B (a compound having 3 or more and less than 10 is denoted as B)
HRAS/KRAS (ratio of KD for GDP-bound HRAS wild-type to KD for KRAS) ([2]; KD ratio HRAS/KRAS, SPR): C (A compound having a KD ratio of 0.1 or more and less than 3 is denoted as C)

C=CCN1CC(=O)N(C)CC(=O)N(CCC)[C@@H](Cc2ccc(C(F)(F)F)cc2)C(=O)N(C)CC(=O)N[C@@H](CCc2ccc(C(F)(F)F)c(Cl)c2)C(=O)N2CCC[C@H]2C(=O)NC2(CCCC2)C(=O)N(C)[C@@H](C2CCCC2)C(=O)N(C)[C@H](C(=O)N2CCOCC2)CC(=O)N(C)[C@@H](CC(C)C)C(=O)N[C@@H]([C@@H](C)CC)C1=O [PP0749] ([NMeL]I[NAllylGly][Sar][NPrPhe(4-CF3)][Sar][hPhe(3-Cl-4-CF3)]P[Ac5c][NMeGly(cPent)][NMeD]-Morpholide; lactam N-11)
NRAS/KRAS (ratio of KD value with respect to GDP-bound NRAS wild-type protein to KD value with respect to KRAS) ([1]; KD ratio NRAS/KRAS, SPR): B (a compound having 3 or more and less than 10 is denoted as B)
HRAS/KRAS (ratio of KD value with respect to GDP-bound HRAS wild-type protein to KD value with respect to KRAS) ([2]; KD ratio HRAS/KRAS, SPR): C (A compound having a KD ratio of 0.1 or more and less than 3 is denoted as C)

CCO[C@@H]1C[C@H]2C(=O)NC3(CCC3)C(=O)N(C)[C@@H](C3CCCC3)C(=O)N(C)[C@H](C(=O)N(C)CC)CC(=O)N(C)[C@@H](CC3CCC3)C(=O)N[C@@H]([C@@H](C)CC)C(=O)N(C)CC(=O)N(C)[C@H]3C/C=C\CCN(C3=O)[C@@H](Cc3ccc(C(F)(F)F)cc3)C(=O)N(C)CC(=O)N[C@@H](CCc3ccc(Cl)c(Cl)c3)C(=O)N2C1 [PP2824]
NRAS/KRAS (ratio of KD value with respect to GDP-bound NRAS wild-type protein to KD value with respect to KRAS) ([1]; KD ratio NRAS/KRAS, class symbols): A (a compound having 10 or more and less than 20 is denoted as A)
HRAS/KRAS (ratio of KD value with respect to GDP-bound HRAS wild-type protein to KD value with respect to KRAS) ([2]; KD ratio HRAS/KRAS, class symbols): A (a compound having 10 or more and less than 20 is denoted as A)

CC[C@H](C)[C@@H]1NC(=O)[C@H](CC(C)C)N(C)C(=O)C[C@@H](C(=O)N2CCOCC2)N(C)C(=O)[C@H](C2CCCC2)N(C)C(=O)C2(CCCC2)NC(=O)[C@@H]2CCCN2C(=O)[C@H](CCc2cc(F)c(C(F)(F)F)c(F)c2)NC(=O)CN(C)C(=O)[C@H](Cc2ccc(C(F)(F)F)cc2)N2CCCC[C@@H](C2=O)N(C)C(=O)CNC1=O [PP0542]
NRAS/KRAS (ratio of KD value with respect to GDP-bound NRAS wild-type protein to KD value with respect to KRAS) ([1]; KD ratio NRAS/KRAS, SPR): B (a compound having 3 or more and less than 10 is denoted as B)
HRAS/KRAS (ratio of KD value with respect to GDP-bound HRAS wild-type protein to KD value with respect to KRAS) ([2]; KD ratio HRAS/KRAS, SPR): B (a compound having 3 or more and less than 10 is denoted as B)
